The compounds below were run against human CB2 receptors (Homo sapiens (Human), UniProt P34972) (assay: Affinity binding test on human CB2 receptors (tritiated ligand, membranes of recombinant cell lines)). Settings: concentration causing 50% inhibition of specific binding of the tritiated ligand, read-out: IC50 (nM) hCB2.
Sequence of human CB2 receptors (P34972 whole entry): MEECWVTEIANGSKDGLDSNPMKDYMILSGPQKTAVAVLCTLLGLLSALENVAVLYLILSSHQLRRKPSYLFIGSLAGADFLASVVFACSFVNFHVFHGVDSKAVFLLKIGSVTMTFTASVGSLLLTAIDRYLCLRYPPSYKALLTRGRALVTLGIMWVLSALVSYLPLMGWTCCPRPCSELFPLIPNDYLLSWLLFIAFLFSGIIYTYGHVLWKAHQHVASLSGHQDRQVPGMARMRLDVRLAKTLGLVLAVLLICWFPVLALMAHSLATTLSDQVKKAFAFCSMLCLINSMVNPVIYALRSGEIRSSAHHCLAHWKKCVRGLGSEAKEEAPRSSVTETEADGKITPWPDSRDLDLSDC
Method: Affinity binding tests were performed according to the experimental conditions described by M. Rinaldi-Carmona in J. Pharmacol. Exp. Therap. 1998, 287, 644-650, with membranes derived either from rodent tissues or from recombinant cell lines in which the human CB2 receptors were expressed (Munro et al., Nature 1993, 365, 61-65). The affinity of the compounds is expressed in the form of the IC50 (concentration causing 50% inhibition of specific binding of the tritiated ligand used in vitro).
`COc1nc(NCCc2ccc(F)cc2)nc(-c2cccc(OC(C)C)c2)n1` [Compound 2] was tested, and the IC50 was 39 nM. Compound `COc1nc(NCCc2ccc(F)cc2)nc(-c2ccc(OC)c(OC)c2)n1` [Compound 3] has an IC50 of 11 nM. `COc1nc(NCCc2ccc(F)cc2)nc(-c2ccc(SC)cc2)n1` [Compound 5] was tested, and the IC50 was 14 nM. `COC(=O)CCc1cccc(-c2nc(NCCc3ccc(F)cc3)nc(OC)n2)c1` [Compound 6] showed an IC50 of 12 nM. `COc1nc(NCCc2ccc(F)cc2)nc(-c2ccc3c(c2)OCO3)n1` [Compound 7] gave an IC50 of 9 nM. `COc1nc(NCCc2ccc(F)cc2)nc(-c2ccc3c(c2)OCCO3)n1` [Compound 8] showed an IC50 of 14 nM. `COc1nc(NCCc2ccc(F)cc2)nc(-c2cccc(C(C)=O)c2F)n1` [Compound 10] showed an IC50 of 10 nM. `COc1nc(NCCc2ccc(F)cc2)nc(-c2cccc(S(=O)(=O)NC3CC3)c2)n1` [Compound 11] gave an IC50 of 2.7 nM. Compound `COc1nc(NCCc2ccc(F)cc2)nc(-c2ccc(Cl)c(C(C)(C)O)c2)n1` [Compound 13] has an IC50 of 0.4 nM. For `COc1nc(NCCc2ccc(F)cc2)nc(-c2ccc(F)c(C(C)(C)O)c2)n1` [Compound 14], the IC50 was 8 nM. `COc1nc(NCCc2ccc(F)cc2)nc(-c2ccc(C(C)(C)O)c(OC)c2)n1` [Compound 15] showed an IC50 of 17 nM. `COc1nc(NCCc2ccc(F)cc2)nc(-c2ccc(N(C)C)nc2)n1` [Compound 16] gave an IC50 of 35 nM. For `COc1nc(NCCc2ccc(F)cc2)nc(-c2cc3cc(Br)ccc3[nH]2)n1` [Compound 17], the IC50 was 17 nM. For `COc1nc(NCCc2ccc(F)cc2)nc(-c2cc3cc(Cl)ccc3[nH]2)n1` [Compound 19], the IC50 was 14 nM. With `COc1nc(NCCc2ccc(F)cc2)nc(-c2cc3ccc(F)cc3[nH]2)n1` [Compound 21] the IC50 was 48 nM. For `COc1nc(NCCc2ccc(F)cc2)nc(-c2cc3cc(C)ccc3[nH]2)n1` [Compound 22], the IC50 was 24 nM. With `COc1nc(NCCc2ccc(F)cc2)nc(-c2cc3c(OC)cccc3[nH]2)n1` [Compound 23] the IC50 was 33 nM. `COc1ccc2[nH]c(-c3nc(NCCc4ccc(F)cc4)nc(OC)n3)cc2c1` [Compound 24] showed an IC50 of 21 nM. With `COc1nc(NCCc2ccc(F)cc2)nc(-c2cc3cc(C#N)ccc3[nH]2)n1` [Compound 25] the IC50 was 27 nM. Compound `COc1nc(NCCc2ccc(F)cc2)nc(-c2cc3ccc(SC)cc3[nH]2)n1` [Compound 26] has an IC50 of 37 nM. Work on `COc1nc(NCCc2ccc(F)cc2)nc(-c2cccc3[nH]ccc23)n1` [Compound 27] yielded an IC50 of 27 nM. For `COc1nc(NCCc2ccc(F)cc2)nc(-c2ccc3[nH]ccc3c2)n1` [Compound 28], the IC50 was 34 nM. `COc1nc(NCCc2ccc(F)cc2)nc(-c2ccc3cc[nH]c3c2)n1` [Compound 29] was tested, and the IC50 was 14 nM. Compound `COc1nc(NCCc2ccc(F)cc2)nc(-c2cc3ccccc3o2)n1` [Compound 30] has an IC50 of 5 nM. With `COc1nc(NCCc2ccc(F)cc2)nc(-c2ccc3nonc3c2)n1` [Compound 31] the IC50 was 42 nM. For `COc1nc(NCCc2ccc(F)cc2)nc(-c2cnc3ccccc3c2)n1` [Compound 32], the IC50 was 34 nM. `COc1nc(NCCc2ccc(F)cc2)nc(-c2ccnc3ccccc23)n1` [Compound 33] showed an IC50 of 11 nM. Compound `COc1nc(NCCc2ccc(F)cc2)nc(-c2cccc3ncccc23)n1` [Compound 34] has an IC50 of 47 nM. Compound `COc1nc(NCCc2ccc(F)cc2)nc(-c2ccc3ncccc3c2)n1` [Compound 35] has an IC50 of 32 nM. Compound `COc1nc(NCCc2ccc(F)cc2)nc(-c2cccc3cccnc23)n1` [Compound 36] has an IC50 of 17 nM. Compound `COc1nc(NCCc2ccc(F)cc2)nc(-c2ccc(F)c3cccnc23)n1` [Compound 37] has an IC50 of 1 nM. `COc1nc(NCCc2ccc(F)cc2)nc(-c2ccc(C)c3ncccc23)n1` [Compound 38] showed an IC50 of 38 nM. `COc1nc(NCCc2ccc(F)cc2)nc(-c2ccc(OC)c3nc(C)ccc23)n1` [Compound 39] showed an IC50 of 38 nM. With `COc1nc(NCCc2ccc(F)cc2)nc(-c2cncc3ccccc23)n1` [Compound 40] the IC50 was 21 nM. For `COc1nc(NCCc2ccc(F)cc2)nc(-c2cccc3cnccc23)n1` [Compound 41], the IC50 was 20 nM. `COc1nc(NCCc2ccc(OC(F)F)cc2)nc(-c2cc3c(Cl)cccc3[nH]2)n1` [Compound 42] gave an IC50 of 24 nM. With `COc1nc(NCCc2ccc(OC(F)F)cc2)nc(-c2cc3cc(F)ccc3[nH]2)n1` [Compound 43] the IC50 was 45 nM. Compound `COc1nc(NCCc2ccc(OC(F)F)cc2)nc(-c2cccc(C(C)(C)O)c2)n1` [Compound 44] has an IC50 of 18 nM. Compound `COc1nc(NCCc2ccc(OC(F)F)cc2)nc(-c2ccc(F)c(C(C)(C)O)c2)n1` [Compound 45] has an IC50 of 30 nM. `COc1nc(NCCc2ccc(F)cc2)nc(-c2cc3ccccc3s2)n1` [Compound 47] gave an IC50 of 4 nM. Compound `COc1ccc2oc(-c3nc(NCCc4ccc(F)cc4)nc(OC)n3)cc2c1` [Compound 48] has an IC50 of 12 nM. With `COc1nc(NCCc2ccc(OC(F)F)cc2)nc(-c2cccc(OC)c2C(C)(C)O)n1` [Compound 49] the IC50 was 4 nM. `COc1nc(NCCc2ccc(OC(F)(F)F)cc2)nc(-c2ccc(Cl)c(C(C)(C)O)c2)n1` [Compound 50] was tested, and the IC50 was 12 nM. `COc1nc(NCCc2ccc(F)cc2)nc(-c2cc3cc(Cl)ccc3o2)n1` [Compound 51] was tested, and the IC50 was 23 nM. Work on `COc1nc(NCCc2ccc(OC(F)(F)F)cc2)nc(-c2ccc(OC)c(C(C)(C)O)c2)n1` [Compound 54] yielded an IC50 of 9 nM. In the case of `COc1nc(NCCc2ccc(OC(F)F)cc2)nc(-c2ccc(C)c(S(=O)(=O)NC3CC3)c2)n1` [Compound 55], the IC50 is reported as 44 nM. With `CCC(O)(CC)c1cccc(-c2nc(NCCc3ccc(F)cc3)nc(OC)n2)c1` [Compound 57] the IC50 was 21 nM. `COc1nc(NCCc2ccc(F)cc2)nc(-c2ccc(CO)c(S(=O)(=O)NC3CC3)c2)n1` [Compound 59] gave an IC50 of 25 nM. `COc1nc(NCCc2ccc(OC(F)F)cc2)nc(-c2cccc(S(=O)(=O)NC3CC3)c2)n1` [Compound 60] was tested, and the IC50 was 23 nM. `COc1nc(NCCc2ccc(F)cc2)nc(-c2ccc(Cl)c(S(=O)(=O)NC3CC3)c2)n1` [Compound 62] showed an IC50 of 4 nM. For `COc1nc(NCCc2ccc(F)cc2)nc(-c2ccc(OC)c(C#N)c2)n1` [Compound 64], the IC50 was 19 nM. `COc1nc(NCCc2ccc(F)cc2)nc(-c2ccc(Cl)c(OCCCNS(C)(=O)=O)c2)n1` [Compound 66] gave an IC50 of 18 nM. With `COc1nc(NCCc2ccc(OC(F)F)cc2)nc(-c2ccc(Cl)c(OCC(N)=O)c2)n1` [Compound 68] the IC50 was 11 nM. Work on `COc1nc(NCCc2ccc(OCF)cc2)nc(-c2ccc(OC)c(C(C)(C)O)c2)n1` [Compound 70] yielded an IC50 of 9 nM.

Same assay, conditions: reported in text, read-out: IC50 on hCB2
`CC(C)(O)c1cc(-c2nc(NCCc3ccc(F)cc3)nc(OCF)n2)ccc1Cl` [Compound 71, 2-{2-Chloro-5-[4-(fluoromethoxy)-6-{[2-(4-fluorophenyl)ethyl]amino}-1,3,5-triazin-2-yl]phenyl}propan-2-ol] showed an IC50 of 1.2 nM. In the case of `COc1ccc(-c2nc(NCCc3ccc(F)cc3)nc(OCF)n2)cc1C(C)(C)O` [Compound 72, 2-{5-[4-(Fluoromethoxy)-6-{[2-(4-fluorophenyl)ethyl]amino}-1,3,5-triazin-2-yl]-2-methoxyphenyl}propan-2-ol], the IC50 is reported as 1.2 nM.

Source: patent publication US9115121B2, “1,3,5-triazine-2-amine derivatives, preparation thereof and diagnostic and therapeutic use thereof” (SANOFI, priority 2011, dated 2015)
